According to patent publication US5622962A, “5α-reductase inhibitors” (priority 1995, dated 1997):

Legend:
[1] = molecular target: T1, Type I 5α-Reductase from Human Scalp (Homo sapiens, UniProt P18405); test: Human Type I 5α-reductase assay (conversion of [3H]-testosterone to 5α-reduced metabolites); assay type: biochemical; settings: pH 7.5, 0.3 μM; 50 nM [3H]-testosterone, pH 7.5, 25°, 180 min; compared to control reaction mixtures; read-out: percent inhibition of Type I AR
T1 construct: Scalp punch biopsies from graft recipient sites were obtained from human hair transplant procedures; from tissue; host or cells: human scalp punch biopsies (hair transplant graft recipient sites), homogenate, 100,000×g pellet
T1 sequence (P18405 1-259): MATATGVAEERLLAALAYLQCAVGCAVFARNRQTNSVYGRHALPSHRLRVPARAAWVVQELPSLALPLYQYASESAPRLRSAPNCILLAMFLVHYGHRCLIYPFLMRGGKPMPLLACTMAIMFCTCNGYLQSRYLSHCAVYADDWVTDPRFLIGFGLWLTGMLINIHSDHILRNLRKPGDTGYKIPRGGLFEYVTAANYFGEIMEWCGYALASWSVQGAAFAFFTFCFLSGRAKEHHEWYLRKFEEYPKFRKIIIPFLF

[2] = molecular target: T2, Type II 5α-Reductase from Human Prostate (Homo sapiens, UniProt P31213); test: Human Type II 5α-reductase assay (conversion of [3H]-testosterone to 5α-reduced metabolites); assay type: biochemical; settings: sodium acetate pH 5.5, 25°, 30 min, compared to control reaction mixtures; for inhibition at 0.3 µM: pH 5.5, 0.3 μM, read-out: percent inhibition of Type II AR
T2 construct: The same procedure as above was used for preparations using tissue from prostate surgery; from tissue; host or cells: human prostate tissue from surgery, homogenate, 100,000×g pellet
T2 sequence (P31213 1-254): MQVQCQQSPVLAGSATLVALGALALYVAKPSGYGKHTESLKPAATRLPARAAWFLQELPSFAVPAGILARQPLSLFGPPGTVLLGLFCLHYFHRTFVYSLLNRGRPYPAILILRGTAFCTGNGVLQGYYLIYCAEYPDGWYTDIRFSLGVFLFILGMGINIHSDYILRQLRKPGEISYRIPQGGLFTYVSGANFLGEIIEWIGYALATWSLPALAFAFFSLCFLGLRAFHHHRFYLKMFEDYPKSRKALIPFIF

SMILES | inhibition at 0.3 µM [1] | percent inhibition of Type II AR ([2]; 0.3 μM) | inhibition at 0.3 µM [2]
CN1C(=O)CC[C@]2(C)c3ccc(Sc4nc5ccccc5s4)cc3CC[C@@H]12 [Example 112, (4aR)-(10bR)-4,10b-dimethyl-8-(2-benzothiazolylthio)-1,2,3,4,4a,5,6,10b-octahydrobenzo[f]quinolin-3-one] | 64% | 92% | 90%
CN1C(=O)CC[C@]2(C)c3ccc(Sc4nccc5ccccc45)cc3CC[C@@H]12 [Example 113, (4aR)-(10bR)-4,10b-dimethyl-8-(1-isoquinolinylthio)-1,2,3,4,4a,5,6,10b-octahydrobenzo[f]quinolin-3-one] | 70% | – | 51%
CN1C(=O)CC[C@]2(C)c3ccc(Sc4cncc5ccccc45)cc3CC[C@@H]12 [Example 114, (4aR)-(10bR)-4,10b-dimethyl-8-(4-isoquinolinylthio)-1,2,3,4,4a,5,6,10b-octahydrobenzo[f]quinolin-3-one] | 55% | – | 47%
CN1C(=O)CC[C@]2(C)c3ccc(Sc4ccncc4)cc3CC[C@@H]12 [Example 115, (+)-(4aR)-(10bR)-4,10b-dimethyl-8-(4-pyridinylthio)-1,2,3,4,4a,5,6,10b-octahydrobenzo[f]quinolin-3-one] | 31% | – | 20%
CN1C(=O)C=C[C@]2(C)c3ccc(-c4cccc5ccccc45)cc3CC[C@@H]12 [Example 117, (+)-(4aR)-(10bR)-4-methyl-8-(1-naphthyl)-10b-methyl-3,4,4a,5,6,10b-hexahydrobenzo[f]quinolin-3-one] | 46% | – | 49%
CN1C(=O)C=C[C@]2(C)c3ccc(-c4cccc([N+](=O)[O-])c4)cc3CC[C@@H]12 [Example 118, (+)-(4aR)-(10bR)-4-methyl-8-(3-nitrophenyl)-10b-methyl-3,4,4a,5,6,10b-hexahydrobenzo[f]quinolin-3-one] | 25% | – | 43%
CSc1ccc(-c2ccc3c(c2)CC[C@H]2N(C)C(=O)CC[C@]32C)cc1 [Example 120, (+)-(4aR)-(10bR)-4-methyl-8-(4-methylthiophenyl)-10b-methyl-1,2,3,4,4a,5,6,10b-octahydrobenzo[f]quinolin-3-one] | 93% | – | 37%
CNS(=O)(=O)c1ccc(-c2ccc3c(c2)CC[C@H]2N(C)C(=O)CC[C@]32C)cc1 [Example 123] | 10% | – | 27%
CN1C(=O)CC[C@]2(C)c3ccc(-c4ccccc4[N+](=O)[O-])cc3CC[C@@H]12 [Example 124, (+)-(4aR)-(10bR)-4-methyl-8-(2-nitrophenyl)-10b-methyl-1,2,3,4,4a,5,6,10b-octahydrobenzo[f]quinolin-3-one] | 23% | – | 32%
CN1C(=O)CC[C@]2(C)c3ccc(-c4ccccc4C#N)cc3CC[C@@H]12 [Example 125, (+)-(4aR)-(10bR)-4-methyl-8-(2-cyanophenyl)-10b-methyl-1,2,3,4,4a,5,6,10b-octahydrobenzo[f]quinolin-3-one] | 64% | – | 36%
CN1C(=O)CC[C@]2(C)c3ccc(-c4ccc(COc5ccccc5)s4)cc3CC[C@@H]12 [Example 126, (+)-(4aR)-(10bR)-4-methyl-8-(2-[5-(phenoxymethyl)thienyl])-10b-methyl-1,2,3,4,4a,5,6,10b-octahydrobenzo[f]quinolin-3-one] | 85% | – | 43%
CN1C(=O)CC[C@]2(C)c3ccc(-c4cc(F)c(F)cc4F)cc3CC[C@@H]12 [Example 128, (+)-(4aR)-(10bR)-4-methyl-8-(2,4,5-trifluorophenyl)-10b-methyl-1,2,3,4,4a,5,6,10b-octahydrobenzo[f]quinolin-3-one] | 82% | – | 40%
